System: 266295-075-R-J1-PDC spheroid viability
Test: Anticancer human tumor 266295-075-R-J1-PDC patient-derived head and neck squamous carcinoma cell line growth inhibition [POLQ]
Settings: spheroids with HUVEC and MSC; for IC50: curve of first compound; for viability, T/C: stronger effect = lower value
How it was run: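 PDC + HUVEC + MSC complex spheroids; POLQ inhibitors ± partner drugs; top conc. at/near clinical Cmax, else 10 microM (SN-38 1 microM), half-log dilutions; 37 degrees C, 5% CO2.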
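Further: spheroids exposed to compounds for seven days before readout.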

CCc1cc2c(N3CCc4c(cc(Cn5ccnc5)cc4-c4cn(C)nc4C(F)(F)F)C3=O)ccnc2c(OC)n1 + COC1C(OC(N)=O)C(O)C(Oc2ccc3c(O)c(NC(=O)c4ccc(O)c(CC=C(C)C)c4)c(=O)oc3c2C)OC1(C)C
IC50 (second compound 0.0316 µM): > 10 µM
IC50 (second compound 0.1 µM): > 10 µM
IC50 (second compound 0.316 µM): > 10 µM
IC50 (second compound 1 µM): > 10 µM
IC50 (second compound 3.16 µM): > 10 µM
IC50 (second compound 10 µM): > 10 µM
viability, T/C (second compound 0.0316 µM, first compound 0.0316 µM): 88.9%
viability, T/C (second compound 0.0316 µM, first compound 0.1 µM): 93%
viability, T/C (second compound 0.0316 µM, first compound 0.316 µM): 119%
viability, T/C (second compound 0.0316 µM, first compound 1 µM): 104%
viability, T/C (second compound 0.0316 µM, first compound 3.16 µM): 144%
viability, T/C (second compound 0.0316 µM, first compound 10 µM): 132%
viability, T/C (second compound 0.1 µM, first compound 0.0316 µM): 117%
viability, T/C (second compound 0.1 µM, first compound 0.1 µM): 96.8%
viability, T/C (second compound 0.1 µM, first compound 0.316 µM): 127%
viability, T/C (second compound 0.1 µM, first compound 1 µM): 107%
viability, T/C (second compound 0.1 µM, first compound 3.16 µM): 114%
viability, T/C (second compound 0.1 µM, first compound 10 µM): 132%
viability, T/C (second compound 0.316 µM, first compound 0.0316 µM): 94.8%
viability, T/C (second compound 0.316 µM, first compound 0.1 µM): 96.7%
viability, T/C (second compound 0.316 µM, first compound 0.316 µM): 95%
viability, T/C (second compound 0.316 µM, first compound 1 µM): 129%
viability, T/C (second compound 0.316 µM, first compound 3.16 µM): 120%
viability, T/C (second compound 0.316 µM, first compound 10 µM): 115%
viability, T/C (second compound 1 µM, first compound 0.0316 µM): 95.3%
viability, T/C (second compound 1 µM, first compound 0.1 µM): 80.9%
viability, T/C (second compound 1 µM, first compound 0.316 µM): 94%
viability, T/C (second compound 1 µM, first compound 1 µM): 102%
viability, T/C (second compound 1 µM, first compound 3.16 µM): 129%
viability, T/C (second compound 1 µM, first compound 10 µM): 127%
viability, T/C (second compound 3.16 µM, first compound 0.0316 µM): 100%
viability, T/C (second compound 3.16 µM, first compound 0.1 µM): 101%
viability, T/C (second compound 3.16 µM, first compound 0.316 µM): 104%
viability, T/C (second compound 3.16 µM, first compound 1 µM): 117%
viability, T/C (second compound 3.16 µM, first compound 3.16 µM): 159%
viability, T/C (second compound 3.16 µM, first compound 10 µM): 146%
viability, T/C (second compound 10 µM, first compound 0.0316 µM): 90.2%
viability, T/C (second compound 10 µM, first compound 0.1 µM): 87.7%
viability, T/C (second compound 10 µM, first compound 0.316 µM): 111%
viability, T/C (second compound 10 µM, first compound 1 µM): 117%
viability, T/C (second compound 10 µM, first compound 3.16 µM): 145%
viability, T/C (second compound 10 µM, first compound 10 µM): 135%

CC(=O)O[C@H]1C(=O)[C@@]2(C)[C@H]([C@H](OC(=O)c3ccccc3)[C@]3(O)C[C@H](OC(=O)[C@H](O)[C@@H](NC(=O)c4ccccc4)c4ccccc4)C(C)=C1C3(C)C)[C@]1(OC(C)=O)CO[C@@H]1C[C@@H]2O + Cc1cccc(N(C)C(=O)C2C(O)CCN2c2nc(C)cc(C(F)(F)F)c2C#N)c1
IC50 (second compound 0.0316 µM): > 3 µM
IC50 (second compound 0.1 µM): > 3 µM
IC50 (second compound 0.316 µM): > 3 µM
IC50 (second compound 1 µM): > 3 µM
IC50 (second compound 3.16 µM): > 3 µM
IC50 (second compound 10 µM): > 3 µM
viability, T/C (second compound 0.0316 µM, first compound 0.00949 µM): 71.9%
viability, T/C (second compound 0.0316 µM, first compound 0.03 µM): 58.7%
viability, T/C (second compound 0.0316 µM, first compound 0.0949 µM): 62.5%
viability, T/C (second compound 0.0316 µM, first compound 0.3 µM): 80.5%
viability, T/C (second compound 0.0316 µM, first compound 0.949 µM): 78.7%
viability, T/C (second compound 0.0316 µM, first compound 3 µM): 60%
viability, T/C (second compound 0.1 µM, first compound 0.00949 µM): 71.7%
viability, T/C (second compound 0.1 µM, first compound 0.03 µM): 71%
viability, T/C (second compound 0.1 µM, first compound 0.0949 µM): 56.9%
viability, T/C (second compound 0.1 µM, first compound 0.3 µM): 74.7%
viability, T/C (second compound 0.1 µM, first compound 0.949 µM): 83.8%
viability, T/C (second compound 0.1 µM, first compound 3 µM): 51.8%
viability, T/C (second compound 0.316 µM, first compound 0.00949 µM): 100%
viability, T/C (second compound 0.316 µM, first compound 0.03 µM): 65.9%
viability, T/C (second compound 0.316 µM, first compound 0.0949 µM): 64%
viability, T/C (second compound 0.316 µM, first compound 0.3 µM): 69.2%
viability, T/C (second compound 0.316 µM, first compound 0.949 µM): 71%
viability, T/C (second compound 0.316 µM, first compound 3 µM): 55.4%
viability, T/C (second compound 1 µM, first compound 0.00949 µM): 70.8%
viability, T/C (second compound 1 µM, first compound 0.03 µM): 56.4%
viability, T/C (second compound 1 µM, first compound 0.0949 µM): 79.4%
viability, T/C (second compound 1 µM, first compound 0.3 µM): 68%
viability, T/C (second compound 1 µM, first compound 0.949 µM): 78.2%
viability, T/C (second compound 1 µM, first compound 3 µM): 62.7%
viability, T/C (second compound 3.16 µM, first compound 0.00949 µM): 93%
viability, T/C (second compound 3.16 µM, first compound 0.03 µM): 60.2%
viability, T/C (second compound 3.16 µM, first compound 0.0949 µM): 73.1%
viability, T/C (second compound 3.16 µM, first compound 0.3 µM): 69.1%
viability, T/C (second compound 3.16 µM, first compound 0.949 µM): 81.5%
viability, T/C (second compound 3.16 µM, first compound 3 µM): 61.9%
viability, T/C (second compound 10 µM, first compound 0.00949 µM): 83.8%
viability, T/C (second compound 10 µM, first compound 0.03 µM): 52.4%
viability, T/C (second compound 10 µM, first compound 0.0949 µM): 60.9%
viability, T/C (second compound 10 µM, first compound 0.3 µM): 68.1%
viability, T/C (second compound 10 µM, first compound 0.949 µM): 72.4%
viability, T/C (second compound 10 µM, first compound 3 µM): 62.8%

— PubChem BioAssay AID1963853 (Molecular Pharmacology Branch, DTP, NCI, 2024)
